Source: patent US20120276124A1, “MAYTANSINOIDS AND THE USE OF SAID MAYTANSINOIDS TO PREPARE CONJUGATES WITH AN ANTIBODY” (priority 2009, published 2012)

Columns and labels:
MDA-MB231 = test: Inhibition of growth of MDA-MB-231 tumor cells by free drugs (14C thymidine uptake); assay type: cell-based; conditions: Homo sapiens, MDA-MB231, 96 hrs, read-out: cellular inhibition proliferation (IC50 in nM) MDA-MB231
Procedure: (§1) Inhibition of Growth of MDA-MB-231 and HCT116 Tumor Cells
(§2) Cells in exponential phase of growth were trypsinized and resuspended in their respective culture medium (DMEM/F12 Gibco #21331; 10% SVF Gibco #10500-056; […] Glutamine Gibco #25030 for MDA-MB231 & MDA-A1 cells; DMEM (Gibco #11960) 10%, SVF Gibco #10500-056; […] Glutamine Gibco #25030 for HCT116 cells). Cell suspension was distributed in 96-well Cytostar culture plates (GE Healthcare Europe, #RPNQ0163) in complete serum-containing media at a density of 5000 cells/well (MDA-MB231 HCT116). After coating for 4 hrs, serial dilutions were added to triplicate wells. Cells were cultured at 37° C./5% CO2 in the presence of the drug for 3 days. On the 4th day, 10 μl of a solution of 14C thymidine (0.1 μCi/well (Perkin Elmer #NEC56825000) was added to each well. The uptake of 14C thymidine was measured 96 hrs after the experiment has been started with a microbeta radioactive counter (Perkin Elmer). Cell-free reagent blanks were subtracted from the test well readings and the data were plotted as surviving fractions obtained by dividing readings of the conjugate-treated cells by the average of readings from control wells of vehicle-treated cells.

HCT116 = test: Inhibition of growth of HCT116 tumor cells by free drugs (14C thymidine uptake); assay type: cell-based; conditions: Homo sapiens, HCT-116; HCT116, 96 hrs; read-out: cellular inhibition proliferation (IC50 in nM) HCT116
Procedure: as §1, §2

| SMILES | IC50 (MDA-MB231) | IC50 (HCT116) |
| --- | --- | --- |
| COC(=O)CCOCCOCCOCCOCCNC(=O)CCN1C(=O)CC(SC(C)(C)CCC(=O)N(C)[C@@H](C)C(=O)O[C@H]2CC(=O)N(C)c3cc(cc(OC)c3Cl)C/C(C)=C/C=C/[C@@H](OC)[C@@]3(O)C[C@H](OC(=O)N3)[C@@H](C)[C@@H]3O[C@@]23C)C1=O (stereo partly drawn) [Example 14, L-DM4-Mal-PEG4-COOMe] | 31.7 nM | 33.6 nM |
| COC(=O)CCOCCOCCOCCOC/C=C/CSC(C)(C)CCC(=O)N(C)[C@@H](C)C(=O)O[C@H]1CC(=O)N(C)c2cc(cc(OC)c2Cl)C/C(C)=C/C=C/[C@@H](OC)[C@@]2(O)C[C@H](OC(=O)N2)[C@@H](C)[C@@H]2O[C@@]12C [Example 12, L-DM4-Allyl-PEG4-COOMe] | 1.5 nM | 0.8 nM |
| COC(=O)CCOCCOCCOCCOCCN(C)C(=O)CSC(C)(C)CCC(=O)N(C)[C@@H](C)C(=O)O[C@H]1CC(=O)N(C)c2cc(cc(OC)c2Cl)C/C(C)=C/C=C/[C@@H](OC)[C@@]2(O)C[C@H](OC(=O)N2)[C@@H](C)[C@@H]2O[C@@]12C [Example 11, L-DM4-AcNMe-PEG4-COOMe] | 28.3 nM | 18.5 nM |
| COC(=O)CCOCCOCCOCCOCCNC(=O)CSC(C)(C)CCC(=O)N(C)[C@@H](C)C(=O)O[C@H]1CC(=O)N(C)c2cc(cc(OC)c2Cl)C/C(C)=C/C=C/[C@@H](OC)[C@@]2(O)C[C@H](OC(=O)N2)[C@@H](C)[C@@H]2O[C@@]12C [Example 10, L-DM4-AcNH-PEG4-COOMe] | 15.3 nM | 13 nM |
